Common to all, as to experiment: relative viability (nuclei count vs DMSO), 5 days (fraction); higher = more cells survive
Compound in experiment [1]: Nc1ncn([C@H]2C[C@H](O)[C@@H](CO)O2)c(=O)n1 [Decitabine] + CCNC(=O)c1noc(-c2cc(C(C)C)c(O)cc2O)c1-c1ccc(CN2CCOCC2)cc1 [Luminespib] (partner 0.01 µM)
In a few lines:
(§1)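 A single step with final 0.05% Triton X-100, 1% formaldehyde and 1 ug/ml Hoechst fixed the cells and stained nuclei 5 days after treatment. Lung cancer cell lines in 1536-well plates had been treated by pin tool the day after seeding with one drug alone or a fixed anchor-drug dose plus five library-drug doses (not always all listed) in √10 steps, and nuclei were counted on 4× images. Relative viability is the ratio of nuclei in treated wells to nuclei in vehicle wells, taken as the median of duplicate plates.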

Compound in experiment [2]: Nc1ncn([C@H]2C[C@H](O)[C@@H](CO)O2)c(=O)n1 [Decitabine] + N=C(N)NC(=N)NCCc1ccccc1 [Phenformin] (partner 250 µM)
An outline of the steps:
as §1

Compound in experiment [3]: O=C(C[C@H]1NCCC[C@@H]1O)Cn1cnc2cc(Br)c(Cl)cc2c1=O (racemic) [Halofuginone] + COc1cccc2cc(-c3nc([C@H]4CC[C@H](C(=O)O)CC4)n4ncnc(N)c34)[nH]c12 [OSI-027] (partner 0.5 µM)
An outline of the steps:
as §1

Compound in experiment [4]: O=C(C[C@H]1NCCC[C@@H]1O)Cn1cnc2cc(Br)c(Cl)cc2c1=O (racemic) [Halofuginone] + C[C@@H](Oc1cc(-c2cnn(C3CCNCC3)c2)cnc1N)c1c(Cl)ccc(F)c1Cl [Crizotinib] (partner 1 µM)
In a few lines:
as §1

With NCI-H650, the relative viability worked out at 0.627 in experiment [1] (first compound 0.04 µM); 0.652 in experiment [1] (first compound 0.1265 µM); 0.489 in experiment [1] (first compound 0.4 µM); 0.314 in experiment [1] (first compound 1.265 µM); 0.315 in experiment [1] (first compound 4 µM); 0.432 in experiment [2] (first compound 0.04 µM). Further, the relative viability in experiment [2] (first compound 0.1265 µM) is 0.408; in experiment [2] (first compound 0.4 µM), 0.321; in experiment [2] (first compound 1.265 µM) it was 0.346; in experiment [2] (first compound 4 µM), 0.291; in experiment [3] (first compound 0.001 µM), 0.531; in experiment [3] (first compound 0.003162 µM) it was 0.59. The relative viability in experiment [3] (first compound 0.01 µM) was found to be 0.506; in experiment [3] (first compound 0.03162 µM) it was 0.492; in experiment [3] (first compound 0.1 µM), 0.533; in experiment [4] (first compound 0.001 µM), 0.77; in experiment [4] (first compound 0.003162 µM), 0.714; in experiment [4] (first compound 0.01 µM) it was 0.73. The relative viability was determined as 0.604 in experiment [4] (first compound 0.03162 µM) and 0.344 in experiment [4] (first compound 0.1 µM).
For NCI-H661, the relative viability amounted to 0.937 in experiment [1] (first compound 0.04 µM); 0.771 in experiment [1] (first compound 0.1265 µM); 0.628 in experiment [1] (first compound 0.4 µM); 0.534 in experiment [1] (first compound 1.265 µM); 0.452 in experiment [1] (first compound 4 µM); 0.289 in experiment [2] (first compound 0.04 µM). The relative viability came to 0.282 in experiment [2] (first compound 0.1265 µM); 0.267 in experiment [2] (first compound 0.4 µM); 0.281 in experiment [2] (first compound 1.265 µM); 0.277 in experiment [2] (first compound 4 µM); 0.776 in experiment [3] (first compound 0.001 µM); 0.685 in experiment [3] (first compound 0.003162 µM). Further, the relative viability in experiment [3] (first compound 0.01 µM) was 0.679; in experiment [3] (first compound 0.03162 µM), 0.611; in experiment [3] (first compound 0.1 µM) it was 0.499; in experiment [4] (first compound 0.001 µM) it was 1.1; in experiment [4] (first compound 0.01 µM), 0.911; in experiment [4] (first compound 0.03162 µM), 0.921. For the same cell line, the relative viability in experiment [4] (first compound 0.1 µM) came to 0.893.
NCI-H727: the relative viability is 0.499 in experiment [1] (first compound 0.04 µM); 0.289 in experiment [1] (first compound 0.1265 µM); 0.339 in experiment [1] (first compound 0.4 µM); 0.288 in experiment [1] (first compound 1.265 µM); 0.407 in experiment [1] (first compound 4 µM); 0.549 in experiment [2] (first compound 0.04 µM). The relative viability in experiment [2] (first compound 0.1265 µM) was determined as 0.503; in experiment [2] (first compound 0.4 µM) it was 0.367; in experiment [2] (first compound 1.265 µM), 0.423; in experiment [2] (first compound 4 µM) it was 0.362; in experiment [3] (first compound 0.001 µM), 0.6; in experiment [3] (first compound 0.003162 µM), 0.572. In addition, the relative viability in experiment [3] (first compound 0.01 µM) is 0.713; in experiment [3] (first compound 0.03162 µM), 0.709; in experiment [3] (first compound 0.1 µM) it was 0.411; in experiment [4] (first compound 0.001 µM) it was 0.689; in experiment [4] (first compound 0.003162 µM) it was 1.04; in experiment [4] (first compound 0.01 µM), 0.771. Moreover, the relative viability stood at 0.574 in experiment [4] (first compound 0.03162 µM) and 0.234 in experiment [4] (first compound 0.1 µM).
As for NCI-H838, the relative viability turned out to be 0.213 in experiment [1] (first compound 0.04 µM); 0.188 in experiment [1] (first compound 0.1265 µM); 0.296 in experiment [1] (first compound 0.4 µM); 0.191 in experiment [1] (first compound 1.265 µM); 0.165 in experiment [1] (first compound 4 µM); 0.398 in experiment [2] (first compound 0.04 µM). For the same cell line, the relative viability in experiment [2] (first compound 0.1265 µM) was determined as 0.409; in experiment [2] (first compound 0.4 µM), 0.247; in experiment [2] (first compound 1.265 µM) it was 0.266; in experiment [2] (first compound 4 µM), 0.242; in experiment [3] (first compound 0.001 µM), 0.39; in experiment [3] (first compound 0.003162 µM), 0.414. For the same cell line, the relative viability came out at 0.413 in experiment [3] (first compound 0.01 µM); 0.339 in experiment [3] (first compound 0.03162 µM); 0.16 in experiment [3] (first compound 0.1 µM); 0.904 in experiment [4] (first compound 0.001 µM); 0.799 in experiment [4] (first compound 0.003162 µM); 0.815 in experiment [4] (first compound 0.01 µM). The relative viability came to 0.718 in experiment [4] (first compound 0.03162 µM) and 0.134 in experiment [4] (first compound 0.1 µM).

(Values after the supplement of paper PMC10307832.)
